Assay results: US11919902B2, “Aryl-bipyridine amine derivatives as phosphatidylinositol phosphate kinase inhibitors” (HiberCell, Inc., priority 2017, dated 2024)

Tests used:
[1] = target: T1, PIP4K2A (full length protein, SignalChem) (Homo sapiens, UniProt P48426); experiment: Kinase Assay PIP4K2 A (Sprint); ADP-Glo biochemical assay; conditions: Table 2; compounds listed under IC50 range headings
T1 construct: 4 nM PIP4K2A (full length protein, SignalChem); purchased SignalChem
T1 sequence (P48426 1-406): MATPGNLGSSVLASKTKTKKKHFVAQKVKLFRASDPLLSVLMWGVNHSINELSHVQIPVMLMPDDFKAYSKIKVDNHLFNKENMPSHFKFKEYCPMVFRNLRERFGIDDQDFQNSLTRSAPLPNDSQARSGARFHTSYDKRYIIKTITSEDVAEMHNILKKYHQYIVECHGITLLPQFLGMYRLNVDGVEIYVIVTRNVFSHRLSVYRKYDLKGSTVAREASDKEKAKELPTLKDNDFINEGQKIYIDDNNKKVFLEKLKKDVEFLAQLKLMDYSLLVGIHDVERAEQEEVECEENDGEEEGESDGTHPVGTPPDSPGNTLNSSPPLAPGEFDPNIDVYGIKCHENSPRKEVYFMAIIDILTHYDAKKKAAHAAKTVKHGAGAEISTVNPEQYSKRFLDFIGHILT
Summary of the method: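 ADP-Glo luminescence detected ADP after a 1 h RT reaction started with 60 μM ATP solution. Before that, full-length PIP4K2A (4 nM in mix) with 100 μM PI(5)P diC8 was pre-incubated 15 min with compounds in MOPS buffer pH 7.2, 25 mM MgCl2, 0.005% Tween 20. IC50 derived from % inhibition relative to DMSO over 10 three-fold concentrations.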

[2] = target: T2, GST tagged PIP4KtypeIIB (Homo sapiens, UniProt P78356); experiment: Trans-FI P kinase assay PIP4K2B (PIP4KtypeIIB inhibition assay); type: biochemical; conditions: Table 4; compounds listed under IC50 range headings; 100 uM GTP, 5 nM PIP4KIIB; read-out: Trans-FI P kinase assays: PIP4K2B IC50
T2 construct: made in house; host or cells: E. coli
T2 sequence (P78356 1-416): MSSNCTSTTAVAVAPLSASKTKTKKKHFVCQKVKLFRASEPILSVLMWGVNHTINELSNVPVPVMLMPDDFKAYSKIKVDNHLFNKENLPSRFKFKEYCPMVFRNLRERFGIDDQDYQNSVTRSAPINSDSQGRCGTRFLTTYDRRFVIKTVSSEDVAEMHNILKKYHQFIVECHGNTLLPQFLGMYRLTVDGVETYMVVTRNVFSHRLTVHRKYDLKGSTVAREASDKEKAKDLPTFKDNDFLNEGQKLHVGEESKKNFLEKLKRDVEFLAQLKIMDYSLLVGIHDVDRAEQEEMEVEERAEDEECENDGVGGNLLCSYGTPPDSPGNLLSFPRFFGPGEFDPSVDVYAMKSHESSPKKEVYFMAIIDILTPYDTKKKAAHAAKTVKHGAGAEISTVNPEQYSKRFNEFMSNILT
Summary of the method: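 Transcreener FI fluorescence, converted to GDP by calibration, tracked product from 5 nM E. coli-expressed GST-PIP4KIIB acting on 80 uM PI5P (DOPE carrier) with 100 uM GTP. Compound (top 4.8 uM final, 5% DMSO) was preincubated 1 h at 27 C before the 2 h reaction; IC50 fitted from residual activity.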

[3] = target: T3, GST tagged PIP4KtypeIIA (Homo sapiens, UniProt P48426); experiment: ADP-glo kinase assay PIP4K 2A (PIP4KtypeIIA inhibition assay); type: biochemical; conditions: Table 3; compounds listed under IC50 range headings; 10 uM ATP, 0.5 nM PIP4KIIA
T3 construct: made in house; host or cells: E. coli
T3 sequence (P48426 1-406): T1 sequence (P48426 1-406)
Summary of the method: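 Read-out was ADP-Glo luminescence converted to μM ADP, with IC50 plotted as % of no-inhibitor activity against log concentration. Reactions contained 10 μM ATP, 80 μM PI5P with DOPE carrier, and 0.5 nM GST-tagged PIP4KIIA (E. coli-expressed) in pH 7.3 HEPES/MgCl2 buffer with 5% DMSO. Enzyme and compound (≤4.8 μM) were preincubated 1 h at 27 °C before the 1 h reaction.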

Row | IC50 [1] [nM] | IC50 [2] [nM] | IC50 [3] [nM] | Compound
1 | 100 to 1000 | 1000 to 2500 | 1000 to 2500 | COC(=O)N1Cc2nccc(-c3cncc(-c4ccc(N5CCCC5=O)cc4)c3)c2C1 [Example 65, methyl 4-(5-(4-(2-oxopyrrolidin-1-yl)phenyl)pyridin-3-yl)-5,7-dihydro-6H-pyrrolo[3,4-b]pyridine-6-carboxylate]
2 | 1000 to 2500 | 2500 to 5000 | > 5000 | O=C1CCCN1c1ccc(-c2cncc(-c3ccc(=O)[nH]c3)c2)cc1 [Example 36, 5′-(4-(2-oxopyrrolidin-1-yl)phenyl)-[3,3′-bipyridin]-6(1H)-one]
3 | < 5000 | > 5000 | > 5000 | CN(CC1CCCNC1)C(=O)c1ccc(-c2cncc(-c3ccncc3)c2)cc1 (stereo not drawn) [Example 180, 4-([3,4′-bipyridin]-5-yl)-N-methyl-N-(piperidin-3-ylmethyl)benzamide]
4 | 100 to 1000 | 100 to 1000 | 100 to 1000 | CN(C)C(=O)c1ccc(-c2cncc(-c3c[nH]c4ncccc34)c2)cc1 [Example 10, 4-(5-(1H-pyrrolo[2,3-b]pyridin-3-yl)pyridin-3-yl)-N,N-dimethylbenzamide]
5 | 1000 to 2500 | 1000 to 2500 | 2500 to 5000 | CNC(=O)c1cc2c(-c3cncc(-c4ccc(C(=O)N(C)C)cc4)c3)ccnc2n1C [Example 13, 4-(5-(4-(dimethylcarbamoyl)phenyl)pyridin-3-yl)-N,1-dimethyl-1H-pyrrolo[2,3-b]pyridine-2-carboxamide]
6 | 100 to 1000 | 2500 to 5000 | 2500 to 5000 | Cc1cc(N2CCCC2=O)ccc1-c1cncc(-c2cn(C)c3ncc(C(C)(C)O)cc23)c1 [Example 168, 1-(4-(5-(5-(2-hydroxypropan-2-yl)-1-methyl-1H-pyrrolo[2,3-b]pyridin-3-yl)pyridin-3-yl)-3-methylphenyl)pyrrolidin-2-one]
7 | 5 to 100 | 10 to 100 | 100 to 1000 | O=C(O)c1cc2c(-c3cncc(-c4ccc(N5CCCC5=O)cc4)c3)ccnc2[nH]1 [Example 163, 4-(5-(4-(2-oxopyrrolidin-1-yl)phenyl)pyridin-3-yl)-1H-pyrrolo[2,3-b]pyridine-2-carboxylic acid]
8 | 5 to 100 | 10 to 100 | 10 to 100 | CC(C)OC(=O)c1cc2c(-c3cncc(-c4ccc(N5CCCC5=O)cc4)c3)ccnc2o1 [Example 167, isopropyl 4-(5-(4-(2-oxopyrrolidin-1-yl)phenyl)pyridin-3-yl)furo[2,3-b]pyridine-2-carboxylate]
9 | 1000 to 2500 | > 5000 | > 5000 | CN(C)C(=O)c1ccc(-c2cncc(-c3cnc4c(ccn4C)c3)c2)cc1 [Example 6, N,N-dimethyl-4-(5-(1-methyl-1H-pyrrolo[2,3-b]pyridin-5-yl)pyridin-3-yl)benzamide]
10 | 5 to 100 | 1 to 10 | 10 to 100 | Nc1ncc(-c2ccnc3c2cc2n3CCN(CC3CC3)C2=O)cc1-c1ccc(N2CCCC2=O)cc1 [Example 88, 4-(6-amino-5-(4-(2-oxopyrrolidin-1-yl)phenyl)pyridin-3-yl)-7-(cyclopropylmethyl)-8,9-dihydropyrido[3′,2′:4,5]pyrrolo[1,2-a]pyrazin-6(7H)-one]
11 | 5 to 100 | 10 to 100 | 100 to 1000 | CN(C)C(=O)c1ccc(-c2cc(-c3ccnc4[nH]c(C(=O)NCc5ccccc5)cc34)cnc2N)nc1 [Example 134, 4-(2′-amino-5-(dimethylcarbamoyl)-[2,3′-bipyridin]-5′-yl)-N-benzyl-1H-pyrrolo[2,3-b]pyridine-2-carboxamide]
12 | 1000 to 2500 | 2500 to 5000 | > 5000 | CN(C)C(=O)c1ccc(-c2cc(-c3ccnc(CNC(=O)CCc4cccc(N)c4)c3)cnc2N)nc1 [Example 194, 2′-amino-2″-((3-(3-aminophenyl)propanamido)methyl)-N,N-dimethyl-[2,3′:5′,4″-terpyridine]-5-carboxamide]
13 | 100 to 1000 | 100 to 1000 | 100 to 1000 | CN(C)C(=O)c1ccc(-c2cc(-c3cc(Nc4cccc(N)c4)ncn3)cnc2N)nc1 [Example 216, 2′-amino-5′-(6-((3-aminophenyl)amino)pyrimidin-4-yl)-N,N-dimethyl-[2,3′-bipyridine]-5-carboxamide]
14 | 100 to 1000 | 100 to 1000 | 1000 to 2500 | CN(C)C(=O)c1ccc(-c2cc(-c3ccnc4[nH]c(C(=O)N5CCOCC5)cc34)cnc2N)nc1 [Example 128, 2′-amino-N,N-dimethyl-5′-(2-(morpholine-4-carbonyl)-1H-pyrrolo[2,3-b]pyridin-4-yl)-[2,3′-bipyridine]-5-carboxamide]
15 | 100 to 1000 | 100 to 1000 | 100 to 1000 | CN(C)C(=O)c1ccc(-c2cc(-c3cc(N)ncn3)cnc2N)nc1 [Example 217, 2′-amino-5′-(6-aminopyrimidin-4-yl)-N,N-dimethyl-[2,3′-bipyridine]-5-carboxamide]
16 | 5 to 100 | 10 to 100 | 10 to 100 | O=C(NCC1CC1)c1cc2c(-c3cncc(-c4ccc(N5CCCC5=O)cc4)c3)ccnc2o1 [Example 79, N-(cyclopropylmethyl)-4-(5-(4-(2-oxopyrrolidin-1-yl)phenyl)pyridin-3-yl)furo[2,3-b]pyridine-2-carboxamide]
17 | < 5000 | > 5000 | > 5000 | CN(C)C(=O)c1ccc(-c2cc(-c3ccnc4cccc(C#N)c34)cnc2N)nc1 [Example 118, 2′-amino-5′-(5-cyanoquinolin-4-yl)-N,N-dimethyl-[2,3′-bipyridine]-5-carboxamide]
18 | 2500 to 5000 | 2500 to 5000 | > 5000 | Cc1ncc(-c2ccncc2)cc1-c1ccc(N2CCCC2=O)cc1 [Example 164, 1-(4-(6-methyl-3,4′-bipyridin-5-yl)phenyl)pyrrolidin-2-one]
19 | 100 to 1000 | 100 to 1000 | 100 to 1000 | CN(C)C(=O)c1ccc(-c2cc(-c3ccnc4cc(N(C)C)ccc34)cnc2N)nc1 [Example 110, 2′-amino-5′-(7-(dimethylamino)quinolin-4-yl)-N,N-dimethyl-[2,3′-bipyridine]-5-carboxamide]
20 | 100 to 1000 | > 5000 | > 5000 | CS(=O)(=O)N1Cc2nccc(-c3cncc(-c4ccc(N5CCCC5=O)cc4)c3)c2C1 [Example 64, 1-(4-(5-(6-(methylsulfonyl)-6,7-dihydro-5H-pyrrolo[3,4-b]pyridin-4-yl)pyridin-3-yl)phenyl)pyrrolidin-2-one]
21 | 5 to 100 | 100 to 1000 | 100 to 1000 | Cn1ncc2c(-c3cncc(-c4ccc(N5CCCC5=O)cc4)c3)cn(CC3CCOCC3)c(=O)c21 [Example 70, 1-methyl-4-(5-(4-(2-oxopyrrolidin-1-yl)phenyl)pyridin-3-yl)-6-((tetrahydro-2H-pyran-4-yl)methyl)-1,6-dihydro-7H-pyrazolo[3,4-c]pyridin-7-one]
22 | 5 to 100 | 100 to 1000 | 100 to 1000 | CN(C)C(=O)c1cnc2[nH]cc(-c3cncc(-c4ccc(N5CCCC5=O)cc4)c3)c2c1 [Example 72, N,N-dimethyl-3-(5-(4-(2-oxopyrrolidin-1-yl)phenyl)pyridin-3-yl)-1H-pyrrolo[2,3-b]pyridine-5-carboxamide]
23 | 1000 to 2500 | 2500 to 5000 | > 5000 | CN(C)C(=O)c1ccc(-c2cc(-c3ccnc(CNC(=O)CCc4cccc(NC(=O)OC(C)(C)C)c4)c3)cnc2N)nc1 [Example 193, tert-butyl (3-(3-(((2′-amino-5-(dimethylcarbamoyl)-[2,3′:5′,4″-terpyridin]-2″-yl)methyl)amino)-3-oxopropyl)phenyl)carbamate]
